From PubChem BioAssay AID1963980 (Molecular Pharmacology Branch, DTP, NCI, 2024)
pIC50: −log10 of the molar value.

Test system: 475296-252-R-J1-PDC spheroid viability
Test: Anticancer human tumor 475296-252-R-J1-PDC patient-derived rectal carcinoma cell line growth inhibition [PI3K]
Conditions: spheroids with HUVEC and MSC; for pIC50: curve of first compound; for viability, T/C: stronger effect = lower value
Procedure, shortened: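 Spheroid viability read-out. Co-cultures contained the tumor line plus HUVEC and human MSCs. Each agent was paired with a PI3K inhibitor (inavolisib, alpelisib, duvelisib, copanlisib) across half-log dilutions starting at clinical Cmax, or at 10 microM when Cmax was unknown.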

[1] = second compound 0.0316 µM, first compound 0.000316 µM
[2] = second compound 0.0316 µM, first compound 0.001 µM
[3] = second compound 0.0316 µM, first compound 0.00316 µM
[4] = second compound 0.0316 µM, first compound 0.01 µM
[5] = second compound 0.0316 µM, first compound 0.0316 µM
[6] = second compound 0.0316 µM, first compound 0.1 µM
[7] = second compound 0.1 µM, first compound 0.000316 µM
[8] = second compound 0.1 µM, first compound 0.001 µM
[9] = second compound 0.1 µM, first compound 0.00316 µM
[10] = second compound 0.1 µM, first compound 0.01 µM
[11] = second compound 0.1 µM, first compound 0.0316 µM
[12] = second compound 0.1 µM, first compound 0.1 µM
[13] = second compound 0.316 µM, first compound 0.000316 µM
[14] = second compound 0.316 µM, first compound 0.001 µM
[15] = second compound 0.316 µM, first compound 0.00316 µM
[16] = second compound 0.316 µM, first compound 0.01 µM
[17] = second compound 0.316 µM, first compound 0.0316 µM
[18] = second compound 0.316 µM, first compound 0.1 µM
[19] = second compound 1 µM, first compound 0.000316 µM
[20] = second compound 1 µM, first compound 0.001 µM
[21] = second compound 1 µM, first compound 0.00316 µM
[22] = second compound 1 µM, first compound 0.01 µM
[23] = second compound 1 µM, first compound 0.0316 µM
[24] = second compound 1 µM, first compound 0.1 µM
[25] = second compound 3.16 µM, first compound 0.000316 µM
[26] = second compound 3.16 µM, first compound 0.001 µM
[27] = second compound 3.16 µM, first compound 0.00316 µM
[28] = second compound 3.16 µM, first compound 0.01 µM
[29] = second compound 3.16 µM, first compound 0.0316 µM
[30] = second compound 3.16 µM, first compound 0.1 µM
[31] = second compound 10 µM, first compound 0.000316 µM
[32] = second compound 10 µM, first compound 0.001 µM
[33] = second compound 10 µM, first compound 0.00316 µM
[34] = second compound 10 µM, first compound 0.01 µM
[35] = second compound 10 µM, first compound 0.0316 µM
[36] = second compound 10 µM, first compound 0.1 µM
[37] = second compound 0.0316 µM, first compound 0.316 µM
[38] = second compound 0.0316 µM, first compound 1 µM
[39] = second compound 0.0316 µM, first compound 3.16 µM
[40] = second compound 0.0316 µM, first compound 10 µM
[41] = second compound 0.1 µM, first compound 0.316 µM
[42] = second compound 0.1 µM, first compound 1 µM
[43] = second compound 0.1 µM, first compound 3.16 µM
[44] = second compound 0.1 µM, first compound 10 µM
[45] = second compound 0.316 µM, first compound 0.316 µM
[46] = second compound 0.316 µM, first compound 1 µM
[47] = second compound 0.316 µM, first compound 3.16 µM
[48] = second compound 0.316 µM, first compound 10 µM
[49] = second compound 1 µM, first compound 0.316 µM
[50] = second compound 1 µM, first compound 1 µM
[51] = second compound 1 µM, first compound 3.16 µM
[52] = second compound 1 µM, first compound 10 µM
[53] = second compound 3.16 µM, first compound 0.316 µM
[54] = second compound 3.16 µM, first compound 1 µM
[55] = second compound 3.16 µM, first compound 3.16 µM
[56] = second compound 3.16 µM, first compound 10 µM
[57] = second compound 10 µM, first compound 0.316 µM
[58] = second compound 10 µM, first compound 1 µM
[59] = second compound 10 µM, first compound 3.16 µM
[60] = second compound 10 µM, first compound 10 µM
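Also: spheroids exposed to agents for seven days before readout.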

With CC(=O)c1c(C)c2cnc(Nc3ccc(N4CCNCC4)cn3)nc2n(C2CCCC2)c1=O + Cc1nc(NC(=O)N2CCCC2C(N)=O)sc1-c1ccnc(C(C)(C)C(F)(F)F)c1 the pIC50 (second compound 0.0316 µM) was < 7.00, the pIC50 (second compound 0.1 µM) was < 7.00 and the pIC50 (second compound 0.316 µM) was < 7.00. The pIC50 (second compound 1 µM) was < 7.00, the pIC50 (second compound 3.16 µM) was < 7.00 and the pIC50 (second compound 10 µM) was < 7.00. The viability, T/C [1] was 99.6%, the viability, T/C [2] was 96.9% and the viability, T/C [3] was 101%. For the same molecule, the viability, T/C [4] was 97.4%, the viability, T/C [5] was 117% and the viability, T/C [6] was 118%. For the same molecule, the viability, T/C [7] was 106%, the viability, T/C [8] was 94.4% and the viability, T/C [9] was 107%. The viability, T/C [10] was 91.3%, the viability, T/C [11] was 103% and the viability, T/C [12] was 108%. The viability, T/C [13] was 92%, the viability, T/C [14] was 114% and the viability, T/C [15] was 94.1%. For the same molecule, the viability, T/C [16] was 101%, the viability, T/C [17] was 110% and the viability, T/C [18] was 101%. For the same molecule, the viability, T/C [19] was 101%, the viability, T/C [20] was 95.5% and the viability, T/C [21] was 100%. For the same molecule, the viability, T/C [22] was 112%, the viability, T/C [23] was 104% and the viability, T/C [24] was 102%. The viability, T/C [25] was 90.4%, the viability, T/C [26] was 102% and the viability, T/C [27] was 96.8%. The viability, T/C [28] was 99%, the viability, T/C [29] was 99.8% and the viability, T/C [30] was 98.9%. It also gave a viability, T/C [31] of 98%, a viability, T/C [32] of 92.7% and a viability, T/C [33] of 96.9%. For the same molecule, the viability, T/C [34] was 98.9%, the viability, T/C [35] was 98.8% and the viability, T/C [36] was 90.2%.

With CC(C)n1nc(-c2ccc3oc(N)nc3c2)c2c(N)ncnc21 + Cc1nc(NC(=O)N2CCCC2C(N)=O)sc1-c1ccnc(C(C)(C)C(F)(F)F)c1 the pIC50 (second compound 0.0316 µM) was < 7.00, the pIC50 (second compound 0.1 µM) was < 7.00 and the pIC50 (second compound 0.316 µM) was < 7.00. For the same molecule, the pIC50 (second compound 1 µM) was < 7.00, the pIC50 (second compound 3.16 µM) was < 7.00 and the pIC50 (second compound 10 µM) was < 7.00. The viability, T/C [1] was 93.5%, the viability, T/C [2] was 95.3% and the viability, T/C [3] was 93.1%. The viability, T/C [4] was 88.4%, the viability, T/C [5] was 83.9% and the viability, T/C [6] was 64.1%. For the same molecule, the viability, T/C [7] was 92.1%, the viability, T/C [8] was 98% and the viability, T/C [9] was 95.2%. For the same molecule, the viability, T/C [10] was 84.5%, the viability, T/C [11] was 76.8% and the viability, T/C [12] was 62%. For the same molecule, the viability, T/C [13] was 97.1%, the viability, T/C [14] was 95.4% and the viability, T/C [15] was 85%. It also gave a viability, T/C [16] of 92.8%, a viability, T/C [17] of 85.9% and a viability, T/C [18] of 59.9%. The viability, T/C [19] was 89.8%, the viability, T/C [20] was 106% and the viability, T/C [21] was 87.3%. For the same molecule, the viability, T/C [22] was 91.9%, the viability, T/C [23] was 70.2% and the viability, T/C [24] was 57.1%. It also gave a viability, T/C [25] of 83.4%, a viability, T/C [26] of 86% and a viability, T/C [27] of 88.4%. For the same molecule, the viability, T/C [28] was 77.5%, the viability, T/C [29] was 82.3% and the viability, T/C [30] was 54.3%. For the same molecule, the viability, T/C [31] was 91.1%, the viability, T/C [32] was 85.1% and the viability, T/C [33] was 83.8%. It also gave a viability, T/C [34] of 89.2%, a viability, T/C [35] of 86.5% and a viability, T/C [36] of 54.4%.

CC1(C)CCC(CN2CCN(c3ccc(C(=O)NS(=O)(=O)c4ccc(NCC5CCOCC5)c([N+](=O)[O-])c4)c(Oc4cnc5[nH]ccc5c4)c3)CC2)=C(c2ccc(Cl)cc2)C1 + Cc1nc(NC(=O)N2CCCC2C(N)=O)sc1-c1ccnc(C(C)(C)C(F)(F)F)c1 was tested, and the pIC50 (second compound 0.0316 µM) was < 5.00, the pIC50 (second compound 0.1 µM) was < 5.00 and the pIC50 (second compound 0.316 µM) was < 5.00. The pIC50 (second compound 1 µM) was < 5.00, the pIC50 (second compound 3.16 µM) was < 5.00 and the pIC50 (second compound 10 µM) was < 5.00. It also gave a viability, T/C [5] of 107%, a viability, T/C [6] of 90.1% and a viability, T/C [37] of 95.3%. It also gave a viability, T/C [38] of 87.2%, a viability, T/C [39] of 95.7% and a viability, T/C [40] of 62.5%. It also gave a viability, T/C [11] of 99.3%, a viability, T/C [12] of 85.6% and a viability, T/C [41] of 98.9%. It also gave a viability, T/C [42] of 93%, a viability, T/C [43] of 94.2% and a viability, T/C [44] of 63.5%. For the same molecule, the viability, T/C [17] was 99.7%, the viability, T/C [18] was 97.5% and the viability, T/C [45] was 89.9%. For the same molecule, the viability, T/C [46] was 84.5%, the viability, T/C [47] was 84.2% and the viability, T/C [48] was 69%. It also gave a viability, T/C [23] of 90.8%, a viability, T/C [24] of 93.2% and a viability, T/C [49] of 97.1%. It also gave a viability, T/C [50] of 93.3%, a viability, T/C [51] of 88.3% and a viability, T/C [52] of 73.3%. The viability, T/C [29] was 83.4%, the viability, T/C [30] was 82% and the viability, T/C [53] was 95.5%. It also gave a viability, T/C [54] of 90.5%, a viability, T/C [55] of 87.5% and a viability, T/C [56] of 63.3%. The viability, T/C [35] was 86.5%, the viability, T/C [36] was 87.6% and the viability, T/C [57] was 89.4%. It also gave a viability, T/C [58] of 89%, a viability, T/C [59] of 87.3% and a viability, T/C [60] of 56.7%.

For CCCS(=O)(=O)Nc1ccc(F)c(C(=O)c2c[nH]c3ncc(-c4ccc(Cl)cc4)cc23)c1F + Cc1nc(NC(=O)N2CCCC2C(N)=O)sc1-c1ccnc(C(C)(C)C(F)(F)F)c1, the pIC50 (second compound 0.0316 µM) was < 5.00, the pIC50 (second compound 0.1 µM) was < 5.00 and the pIC50 (second compound 0.316 µM) was < 5.00. For the same molecule, the pIC50 (second compound 1 µM) was < 5.00, the pIC50 (second compound 3.16 µM) was < 5.00 and the pIC50 (second compound 10 µM) was < 5.00. The viability, T/C [5] was 88.8%, the viability, T/C [6] was 95.5% and the viability, T/C [37] was 92.2%. For the same molecule, the viability, T/C [38] was 91.5%, the viability, T/C [39] was 80.5% and the viability, T/C [40] was 94%. The viability, T/C [11] was 106%, the viability, T/C [12] was 94.6% and the viability, T/C [41] was 88%. It also gave a viability, T/C [42] of 81.2%, a viability, T/C [43] of 98.7% and a viability, T/C [44] of 100%. The viability, T/C [17] was 85%, the viability, T/C [18] was 94.8% and the viability, T/C [45] was 98.2%. It also gave a viability, T/C [46] of 92.6%, a viability, T/C [47] of 91.1% and a viability, T/C [48] of 96.3%. For the same molecule, the viability, T/C [23] was 83.1%, the viability, T/C [24] was 97.3% and the viability, T/C [49] was 88.2%. It also gave a viability, T/C [50] of 89.8%, a viability, T/C [51] of 89.3% and a viability, T/C [52] of 82%. The viability, T/C [29] was 83.6%, the viability, T/C [30] was 92.8% and the viability, T/C [53] was 87.6%. It also gave a viability, T/C [54] of 92%, a viability, T/C [55] of 89.9% and a viability, T/C [56] of 73%. For the same molecule, the viability, T/C [35] was 80.4%, the viability, T/C [36] was 82% and the viability, T/C [57] was 82.1%. The viability, T/C [58] was 80.4%, the viability, T/C [59] was 76.3% and the viability, T/C [60] was 66.1%.
